From patent publication US8754040B2, “Cyclic peptide compound, method for producing same, anti-infective agent, antibiotic-containing fraction, antibiotic, method for producing antibiotic, antibiotic-producing microorganism, and antibiotic produced by same” (priority 2010, dated 2014)
Converted amounts (≈) assume the structure as drawn. “Also recorded” adds a separate entry of the source. Like-named read-outs stand apart in the source and are kept apart here. Positions of bridges follow the written chain, without caps; N, C: chain ends. Non-standard residues stand in square brackets, D forms with d. Residues, ends and D or L forms follow the SMILES beside them. *: point of attachment. Hexanoyl(3R-OH,5-Me) = CC(C)C[C@@H](O)CC(=O)*; dNMeF = CN[C@H](Cc1ccccc1)C(=O)O

Assays:
[1] = acute toxicity test to a mouse; type: in vivo
Protocol: Further, the RH2180-5 Peak 5 Substance was injected hypodermically to the mouse to study acute toxicity of the RH2180-5 Peak 5 Substance to the mouse by observation one day after the administration.

Staphylococcus aureus [2] = assay: silkworm Staphylococcus aureus infection model (therapeutic effect); type: in vivo, silkworm (larva of Bombyx mori); conditions: purification stages, Table 2
Source text: In the present invention too, a first screening to narrow down effective strains from several tens of thousands of extraordinary large numbers of strains may be done by any method as far as the antibacterial activity can be evaluated with the said method; and thus, for example, by referring to MIC, test bodies showing the antibacterial activity to Staphylococcus aureus in culture supernatant of each strain may be picked up. This is because strains not showing the antibacterial activity at all are not in the scope of examination. Any method capable of evaluating the antibacterial activity may be used; but a method with which a strain recognized to show, with referring to MIC, the antibacterial activity to Staphylococcus aureus in culture supernatant of various test strains is picked up is preferable. […]
Strains recognized to show the therapeutic effect in the silkworm Staphylococcus aureus infection model are further subjected to various separation and purification treatments wherein the therapeutic effect is evaluated in each operation by using the silkworm Staphylococcus aureus infection model. […]

Streptococcus pyogenes = type: cell-based
Staphylococcus aureus [3] = assay: survived cell numbers (CFU) of Staphylococcus aureus after drug addition; type: cell-based; conditions: 25 μg/ml
Protocol: To CA-Mueller Hinton Broth medium were taken 1.8×10^8 Staphylococcus aureus, and then the foregoing RH2180-5 Peak 5 Substance (25 μg/mL), vancomycin (VM, 5 μg/mL), and gentamicin (GM, 2.5 μg/mL) were added thereinto; and then, survived cell numbers after 15 minutes, 30 minutes, 60 minutes, and 120 minutes were obtained as CFU (colony forming unit/mL).

Candida tropicalis pK233 = type: cell-based
Listeria monocytogenes = type: cell-based
Salmonella enterica = test system: Salmonella enterica
Source text: (§1) Antibacterial activity of the antibiotic-substance-containing fraction at each fractionation stage from a culture produced from RH2180-5 and that of the antibiotic substance obtained therefrom by separation and purification thereof can be evaluated by MIC. […] For example, it is done with a broth microdilution method based on CLSI (formerly NCCLS: National Committee for Clinical Laboratory Standards).
Antibacterial spectrum of the RH2180-5 Peak 5 Substance to various bacteria including MRSA and VRE was studied. In addition, influence of chemical resistance was also studied. For study of the latter, Staphylococcus aureus and Enterococcus faecalis were selected, wherein measurement of MIC value of each peak substance was made by a broth microdilution method based on CLSI (formerly NCCLS: National Committee for Clinical Laboratory Standards) as to Staphylococcus aureus not showing resistance to a chemical (hereinafter abbreviated as “MSSA 1”) and two kinds of MRSA showing resistance to many chemicals including methicillin (MRSA 3 and MRSA 4; see Table 3 for resistive chemicals) for Staphylococcus aureus; and as to Enterococcus faecalis not showing resistance to a chemical (hereinafter abbreviated as “EF 1”) and showing resistance to vancomycin (hereinafter abbreviated as “VRE”) for Enterococcus faecalis. […]

[4] = test system: Staphylococcus aureus (MSSA1)
Source text: as §1
Antibacterial spectrum of the RH2180-5 Peak 5 Substance to various bacteria including MRSA and VRE was studied. In addition, influence of chemical resistance was also studied. For study of the latter, Staphylococcus aureus and Enterococcus faecalis were selected, wherein measurement of MIC value of each peak substance was made by a broth microdilution method based on CLSI (formerly NCCLS: National Committee for Clinical Laboratory Standards) as to Staphylococcus aureus not showing resistance to a chemical (hereinafter abbreviated as “MSSA 1”) and two kinds of MRSA showing resistance to many chemicals including methicillin (MRSA 3 and MRSA 4; see Table 3 for resistive chemicals) for Staphylococcus aureus; and as to Enterococcus faecalis not showing resistance to a chemical (hereinafter abbreviated as “EF 1”) and showing resistance to vancomycin (hereinafter abbreviated as “VRE”) for Enterococcus faecalis.
Test microorganisms of Staphylococcus aureus and Enterococcus faecalis, the same as Test Example 1, were selected; and measurement of MIC value of each peak substance was made by a broth microdilution method based on CLSI (formerly NCCLS: National Committee for Clinical Laboratory Standards) as to MSSA 1 and EF 1, and MRSA 3, MRSA 4, and VRE, the same as Test Example 1.
Antibacterial spectrum of the foregoing RH2180-5 Peak 5 Substance to various microorganisms including MRSA and VRE was studied. Each MIC value for the case added with 10% blood serum and for the case not added with the same was measured by a broth microdilution method based on CLSI (formerly NCCLS: National Committee for Clinical Laboratory Standards).

Staphylococcus aureus [5] = assay: bacteriolytic activity, absorbance at 600 nm (OD600); type: cell-based; conditions: concentration five times that of Test Example 1, 37° C., compared with vancomycin and daptomycin, FIG. 11
Protocol: Staphylococcus aureus was diluted in CA-Mueller Hinton Broth medium; and then, the RH2180-5 Peak 5 Substance, vancomycin, and daptomycin were added thereinto with the concentrations thereof being five times as much as those of Test Example 1; and then, the microorganism was cultured at 37° C. By using an absorption spectrometer (manufactured by Shimadzu Corp.), absorbance at 600 nm (OD600) after their addition was followed with passage of time.

[6] = test system: Cryptococcus neoformans H99; type: cell-based
[7] = test system: Smith strain of Staphylococcus aureus; assay: mouse Staphylococcus aureus infection model (therapeutic effect); type: in vivo, mouse (ICR female)
Protocol: Smith strain of Staphylococcus aureus was suspended in 7% mucin+0.2 mM ferric ammonium citrate, and 6.2×10^6 (20×LD50) thereof was administered into the peritoneal cavity of 5 mice per group (ICR female of four weeks of age). Each drug was injected hypodermically 2 hours after administration of the bacterium by the method shown below.
Similarly, ED50 of vancomycin to the mouse model used this time was studied. […] Here, ED50 values were obtained by the probit method.

CC[C@H](C)[C@@H]1NC(=O)[C@@H](Cc2c[nH]c3ccccc23)NC(=O)[C@@H](CCC(N)=O)NC(=O)[C@H](CCC(=O)O)NC(=O)[C@@H](CCCNC(=N)N)NC(=O)[C@H](CC(C)C)NC(=O)[C@@H](Cc2ccccc2)N(C)C(=O)CNC(=O)[C@H](CO)NC(=O)[C@@H](CCCNC(=N)N)NC(=O)[C@@H](NC(=O)C[C@H](O)CC(C)C)[C@@H](C)OC(=O)[C@H]([C@@H](C)O)NC1=O [Peak P5] ({Hexanoyl(3R-OH,5-Me)}-T[dR]SG[dNMeF]L[dR]E[dQ][dW]IT; ester 1-C)
acute toxicity to the mouse ([1]; injected hypodermically, up to 50 mg/kg, observation one day after the administration, listed as RH2180-5 Peak 5 Substance): mouse was not killed; also recorded: no toxicity observed | highest dose without toxicity (50 mg/kg) relative to ED50 ([1]; mouse, hypodermic): 80 folds | ED50 (Staphylococcus aureus [2]): 0.3 μg/g-larva | MIC (Streptococcus pyogenes): 50 µg/mL (≈ 30.9 µM) | CFU/ml of S. aureus (Staphylococcus aureus [3]; 15 minutes, start 1.8 × 10^8): <1 × 10^4 CFU/ml | CFU/ml of S. aureus (Staphylococcus aureus [3]; 30 minutes): <1 × 10^4 CFU/ml | CFU/ml of S. aureus (Staphylococcus aureus [3]; 60 minutes): <1 × 10^4 CFU/ml | CFU/ml of S. aureus (Staphylococcus aureus [3]; 120 minutes): <1 × 10^4 CFU/ml | MIC (Candida tropicalis pK233): >100 µg/mL | MIC (Listeria monocytogenes): 6.3 µg/mL (≈ 3.89 µM) | MIC (Salmonella enterica; Table 3, Salmonella enteria): >100 µg/mL | MIC (Salmonella enterica; Table 6, without serum, Salmonella enterica): >100 µg/mL | MIC ([4]; Table 3, Staphylococcus aureus (MSSA1), resistance-showing chemicals: Non): 5 µg/mL (≈ 3.09 µM) | MIC ([4]; Table 4, MSSA1): 6.3 µg/mL (≈ 3.89 µM) | MIC ([4]; Table 6, with 10% serum, Methicillin susceptible S. aureus MSSA1 (clinical isolate)): 1.5 µg/mL (≈ 0.927 µM) | MIC ([4]; Table 6, without serum, Methicillin susceptible S. aureus MSSA1 (clinical isolate)): 3.1 µg/mL (≈ 1.92 µM) | bacteriolytic activity (decrease of absorbance OD600) (Staphylococcus aureus [5]): shows the bacteriolytic activity | MIC [6]: >100 µg/mL | survival in the mouse Staphylococcus aureus infection model ([7]; 25 mg/kg hypodermically, no survival with PBS administration, 5 mice per group): survival of totality of mice | ED50 value relative to vancomycin ([7]; mouse Staphylococcus aureus infection model): about one third | ED50 ([7]; mouse, S. aureus Smith 6.2 × 10^6 (20 × LD50) intraperitoneal, drug injected hypodermically 2 hours later, survival one day after, probit method): 0.6 mg/kg | Solubility to solvents (chloroform): Insoluble | Solubility to solvents (water, ethanol, methanol, and acetonitrile): Soluble
